Experimental data taken from patent publication US5124313A, “Methods of improved skin care and the treatment of dermatological conditions” (priority 1989, dated 1992).
Like-named read-outs stand apart in the source and are kept apart here. Values belong to the compound of their own block, whether it stands above or below them.

Experiments:
[1] = cited from earlier work; for allergic responses / skin irritation / sensitization: human, in vivo
fetuses [2] = settings: rat; topical administration to the mother; cited from earlier work
fetuses [3] = settings: rabbit; topical administration to the mother; cited from earlier work
[4] = topical; cited from earlier work
[5] = present practices of use and concentration; cited from earlier work
[6] = In vitro water/solvent partitioning (dispersion, centrifugation, HPLC of supernatant); assay type: physicochemical
Method: The method s for determining in vitro water/solvent partitioning was as follows:
Individual dispersions of the above were prepared in the following solvents:
(1) Distilled water at 23° C.
(2) Distilled water at 70° C.
The dispersions were made under nitrogen and protected from light, using high shear agitation to yield particles of less than 0.5 u in diameter. The concentrations in each case were calculated to yield 4,000 i.u. per ml. The dispersions were centrifuged until clear supernatant liquids were obtained. Aliquouts of 50 uL of the clear supernatants were injected into the HPLC columns and the resulting peaks were evaluated, using a methanol solution of retinyl palmitate as the standard.

[7] = human, in vivo
Method: Ten subjects, 4 females and 6 males, ranging in age from 18 to 27 years participated with informed consent.
The products were applied to alternate inner wrist surfaces, in areas of 2.5×1.0 cm, rubbed into the skin for aproximately 5-10 seconds, using a gloved finger as an applicator and applying equal pressure in all applications. […] Mixing, applications and assays were performed in subdued light in order to decrease photodecomposition. The application sites were loosely covered with protective aluminum foil. After 30 minutes of exposure, the surface products were removed by rinsing with alcohol followed by air-drying. A strip of 3M Tape was then applied to the application site in a slightly larger rectangle than the site and removed. This stripping process was repeated for a total of 15 times and was designed to removed the entire stratum corneum. The combined strips were eluted with methanol and the eluates were assayed for RP by HPLC, using a Lichrosorb Si 60/5 micron column, after separation and saponification according to a modified USP XXI procedure.

[8] = n-Hexane at 250° C. (so in the source), dispersion calculated to 4,000 i.u. per ml
[9] = n-Hexane, dispersion calculated to 4,000 i.u. per ml

SMILES: CC1=C(/C=C/C(C)=C/C=C/C(C)=C/C(=O)O)C(C)(C)CCC1 [Tretinoin, All-trans-retinoic acid]
allergic responses / skin irritation / sensitization [1]: severe skin irritation, sensitization and allergic responses
fetal abnormalities (fetuses [2]): abnormalities in rat and rabbit fetuses
fetal abnormalities (fetuses [3]): abnormalities in rat and rabbit fetuses
treatment of photoaged skin [4]: effective for the treatment of photoaged skin

solubility in n-hexane (in words) [6]: good solubility
solubility in water (in words) [6]: no solubility in water
Absorption, both HPLC peaks (or absence of peak) ([6]; Water at 23° C., dispersion calculated to 4,000 i.u. per ml): No peak
Absorption, both HPLC peaks (or absence of peak) ([6]; Water at 70° C., dispersion calculated to 4,000 i.u. per ml): No Peak
Absorption, both HPLC peaks (or absence of peak) [6, 8]: 0.10
HPLC Peak #2 [6, 8]: 0.070
Absorption equivalent [6, 9]: ~4,000 i.u.
HPLC Peak #1 [6, 9]: 0.031
% Retinyl Palmitate Absorbed, average +/- Std. Deviation [7]: 0.84 +/- 0.21%
SMILES: CCCCCCCCCCCCCCCC(=O)OC/C=C(C)/C=C/C=C(C)/C=C/C1=C(C)CCCC1(C)C [RP, retinyl palmitate]
safety as cosmetic ingredient [5]: safe as cosmetic ingredients
partitioning / migration into water and hexane (in words) ([6]; water and hexane): no migration into water with some fractionation into hexane

SMILES: CC(C=CC1=C(C)CCCC1(C)C)=CC=CC(C)=CCO [retinol, 3,7-dimethyl-9-(2,6,6-trimethyl-1-cyclohexen-1-yl)-2,4,6,8-nonatetraen-1-ol]
safety as cosmetic ingredient [5]: safe as cosmetic ingredients

SMILES: CC1=C(/C=C/C(C)=C/C=C/C(C)=C\C(=O)O)C(C)(C)CCC1 [Accutane®, 13-cis-Retinoic acid]
birth defects ([1]; children of women treated during pregnancy): extensive birth defects in children of women treated with the drug during pregnancy
allergic responses / skin irritation / sensitization [1]: Allergic responses have also been reported
